Laboratory results from patent US12059472B2 (Bayer Aktiengesellschaft, priority 2016, dated 2024).
Entries after “also recorded” stand apart in the source; their conditions may differ. Where a name gives a salt, the structure may show the parent alone.

Key:
[1] = target: legumain (Homo sapiens (Human), UniProt Q99538); assay: Legumain assay (cleavage of prodrug); format: biochemical; conditions: pH 5.0; for half-life: human, recombinant human legumain, rh legumain 1 ng/μl, 50 mM MES, 250 mM NaCl, read-out: half-life of cleavage to the target compound in the legumain assay (converted)
legumain, sequence (Q99538 18-323): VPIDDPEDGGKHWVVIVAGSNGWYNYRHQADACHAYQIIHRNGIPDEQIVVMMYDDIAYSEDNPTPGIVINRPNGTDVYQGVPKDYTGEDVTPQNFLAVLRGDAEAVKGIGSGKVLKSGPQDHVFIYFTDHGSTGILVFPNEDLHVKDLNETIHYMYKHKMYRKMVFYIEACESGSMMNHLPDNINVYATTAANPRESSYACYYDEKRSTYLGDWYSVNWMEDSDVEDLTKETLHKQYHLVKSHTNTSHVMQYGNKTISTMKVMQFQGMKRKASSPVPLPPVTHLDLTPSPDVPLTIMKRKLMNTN
Protocol: The legumain assay was conducted with recombinant human enzyme. The rh legumain enzyme solution (catalogue #2199-CY, R&D Systems) was diluted to the desired concentration in 50 mM Na acetate buffer/100 mM NaCl, pH4.0 and preincubated at 37° C. for 2 h. rh legumain was then adjusted to a final concentration of 1 ng/μl in 50 mM MES buffer, 250 mM NaCl, pH 5.0. For every legumain-cleavable prodrug to be examined, a mixture was made up in a micro reaction vessel (0.5 ml, from Eppendorf). For this purpose, the substrate solution was adjusted to the desired concentration (double concentration) with 50 mM MES buffer, 250 mM NaCl, pH 5.0. For the kinetic measurement of the enzymatic reaction, 250 μl of the legumain solution were first initially charged and the enzyme reaction was started by adding 250 μl of the substrate solution (final concentration: single concentration). At different times, 50 μl samples were taken. This sample was admixed immediately with 100 μl of ice-cold methanol in order to stop the enzymatic reaction and then frozen at −20° C. The times selected for sampling were after 0.5 h, 1 h, 3 h and 24 h. The samples were then analysed by means of RP-HPLC analysis and by LC-MS analysis. The determination of the toxophore released enabled the determination of the half-life t1/2 of the enzymatic reaction (FIG. 1).

[2] = Stability in rat liver lysosomes; format: in vitro ADME; conditions: rat liver lysosomal extract, 37° C.; for extent of cleavage in the lysosomal stability assay: within 24 h
Protocol: To determine the lysosomal stability of compounds RM-A and RM-B, lysosomal enzymes were isolated from rat liver cells. Compounds A and B were each added to this lysosomal extract in order to examine stability under lysosomal conditions. The proteolytic enzyme legumain is expressed only in a very small amount, if any, in rat liver lysosomes (Chen, J-M. et al 1997). To monitor the enzymatic activity of the lysosomal enzymes, a cathepsin-specific substrate was added.
First of all, a fresh rat liver was removed, weighed and immediately placed on ice in homogenization medium (0.25 M sucrose, 1 mM EDTA, 10 mM HEPES, pH7). The liver was comminuted and a change of medium was undertaken. The rat livers were homogenized with 4 times the amount of the rat liver weight at 750 rpm in a Potter (B. Braun). The homogenate was centrifuged at 1000 g for 10 min and the supernatant was filtered. In the next step, with the aid of an ultracentrifuge, the “light mitochondrial fraction” (LMF) was centrifuged out of the supernatant at 26 500 g over 20 min. Also present in the pellet apart from mitochondria are the lysosomes. The supernatant was discarded and the pellet was resuspended with 0.8 ml/g of homogenization medium.
The sucrose was added from a 2.3 M stock solution of the particular percentage. 2.5 ml of isolated LMF were additionally added to the density stage with a sucrose content of 19%. Subsequently, the density stages were layered one on top of another in 10 ml centrifuge tubes and centrifuged at 48 500 g for 17 h. […] To monitor the lysis, the protein content of the lysed lysosomal fraction was monitored with the aid of a BCA assays (Pierce BCA protein assay kit).
To examine the lysosomal stability of compounds RM-A and RM-B, 6 μl of a 100 μg/ml stock solution (9 acetonitrile/1 DMSO) were added to 290 μl of 90 mM citrate buffer and 300 μl of lysosomal extract and incubated at 37° C. on an Eppendorf shaker. […] For the RP-HPLC LCMS analysis, the samples were diluted with 300 μl of 10 mM ammonium acetate buffer (pH 6.8) and analysed.

[3] = target: human kinesin spindle protein KSP/Eg5 (Homo sapiens (Human), UniProt P52732); assay: Inhibition of the kinesin spindle protein KSP/Eg5 (ATPase, malachite green); format: biochemical; conditions: Table 2; active metabolites; 10 nM KSP motor domain, 500 μM ATP
human kinesin spindle protein KSP/Eg5, sequence (P52732 18-359): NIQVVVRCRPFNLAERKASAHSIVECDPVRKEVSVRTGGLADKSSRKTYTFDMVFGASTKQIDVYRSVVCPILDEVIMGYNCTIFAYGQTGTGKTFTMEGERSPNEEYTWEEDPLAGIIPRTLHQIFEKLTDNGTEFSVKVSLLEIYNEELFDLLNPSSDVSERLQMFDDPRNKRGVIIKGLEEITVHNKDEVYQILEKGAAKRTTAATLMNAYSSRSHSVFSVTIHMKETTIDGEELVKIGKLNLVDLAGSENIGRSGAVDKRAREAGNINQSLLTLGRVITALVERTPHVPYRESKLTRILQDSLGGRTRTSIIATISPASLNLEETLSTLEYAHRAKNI
Protocol: The motor domain of the human kinesin spindle protein KSP/Eg5 (tebu-bio/Cytoskeleton Inc, No. 027EG01-XL) was incubated in a concentration of 10 nM with microtubuli (bovine or porcine, tebu-bio/Cytoskeleton Inc) stabilized with 50 μg/ml taxol (Sigma No. T7191-5MG) for 5 min at RT in 15 mM PIPES, pH 6.8 (5 mM MgCl2 and 10 mM DTT, Sigma). […] Incubation was at RT for 2 h. ATPase activity was detected by detecting the inorganic phosphate formed using malachite green (Biomol). […] The positive controls used were monastrol (Sigma, M8515-1 mg) and ispinesib (AdooQ Bioscience A10486). The individual data of the dose-activity curve are eight-fold determinations. The IC50 values are means of two independent experiments.

[4] = tested on: Caco-2 cells; assay: Caco-2 flux assay for cell permeability; format: in vitro ADME
Protocol: The cell permeability of a substance can be investigated by means of in vitro testing in a flux assay using Caco-2 cells [M. D. Troutman and D. R. Thakker, Pharm. […] For this purpose, the cells were cultured for 15-16 days on 24-well filter plates. For the determination of permeation, the respective test substance was applied in a HEPES buffer to the cells either apically (A) or basally (B) and incubated for 2 hours. After 0 hours and after 2 hours, samples were taken from the cis and trans compartments. The samples were separated by HPLC (Agilent 1200, Böblingen, Germany) using reverse phase columns. The HPLC system was coupled via a Turbo Ion Spray Interface to a Triple Quadropol mass spectrometer API 4000 (AB SCIEX Deutschland GmbH, Darmstadt, Germany).
Of critical importance for toxophors which are released intracellularly is the permeability from B to A [Papp (B-A)] and the ratio of Papp (B-A) to Papp (A-B) (efflux ratio): the lower this permeability, the slower the active and passive transport processes of the substance through the monolayer of Caco-2 cells.

## CNC(=O)[C@H](CCN(C(=O)CO)[C@@H](c1cc(-c2cc(F)ccc2F)cn1Cc1ccccc1)C(C)(C)C)NC(=O)[C@H](CC(N)=O)NC(=O)Cc1ccncc1 [RM-B, N^1-[(2S)-4-[{(1R)-1-[1-Benzyl-4-(2,5-difluorophenyl)-1H-pyrrol-2-yl]-2,2-dimethylpropyl}(glycoloyl)amino]-1-(methylamino)-1-oxobutan-2-yl]-N^2-(pyridin-4-ylacetyl)-L-aspartamide]
[1]
  half-life: ~10 h
[2]
  extent of cleavage in the lysosomal stability assay: 13%

## CNC(=O)[C@H](CCN(C(=O)CO)[C@@H](c1cc(-c2cc(F)ccc2F)cn1Cc1ccccc1)C(C)(C)C)NC(=O)[C@H](CCC(N)=O)NC(=O)Cc1ccncc1 [RM-C, N^1-[(2S)-4-[{(1R)-1-[1-Benzyl-4-(2,5-difluorophenyl)-1H-pyrrol-2-yl]-2,2-dimethylpropyl}(glycoloyl)amino]-1-(methylamino)-1-oxobutan-2-yl]-N^2-(pyridin-4-ylacetyl)-L-glutamide]
[1]; rh legumain
  cleavage by legumain (in words): not cleaved; also recorded: not possible to show any cleavage by legumain

## CC(C)(C)[C@H](c1cc(-c2cc(F)ccc2F)cn1Cc1ccccc1)N(CC[C@H](N)C(=O)NCCNC(=O)[C@@H](CCC(=O)O)NC(=O)CNC(=O)[C@H](CC(=O)O)SC[C@H](N)C(=O)O)C(=O)CO [Example M2, trifluoroacetic acid salt]
[3]
  IC50: 0.467 nM
[4]; Caco-2
  transport from the cell and efflux ratio (in words): very low level of transport from the cell and a low efflux ratio
[4]; Caco-2, basal to apical, 2 hours
  Papp (B-A): 0.11 ×10⁻⁶ cm/s
[4]; Caco-2, ratio of Papp (B-A) to Papp (A-B)
  Efflux ratio: 1.6

## CNC(=O)[C@H](CCN(C(=O)CO)[C@@H](c1cc(-c2cc(F)ccc2F)cn1Cc1ccccc1)C(C)(C)C)NC(=O)[C@H](CC(N)=O)NC(=O)[C@H](C)NC(=O)[C@H](C)NC(=O)Cc1ccncc1 [RM-A, N-(Pyridin-4-ylacetyl)-L-alanyl-L-alanyl-N^1-[(2S)-4-[{(1R)-1-[1-benzyl-4-(2,5-difluorophenyl)-1H-pyrrol-2-yl]-2,2-dimethylpropyl}(glycoloyl)amino]-1-(methylamino)-1-oxobutan-2-yl]-L-aspartamide]
[1]
  half-life: 0.2 h
[2]
  half-life at 1 µg/ml: ~6 h
  extent of cleavage in the lysosomal stability assay: about 80%
